The test deals with Ubiquitin carboxyl-terminal hydrolase 30 (Homo sapiens) (UniProt Q70CQ3). Description: ubiquitin-specific protease 30 DUB inhibitors, concentration-effect, biochemical, validation of primary actives (AID 1645865). Particulars: purified USP30, Ub-rhodamine cleavage, fluorescence, 2 h.

The structures appear in SMILES notation. Active and inactive are the calls of the source.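 Rule for the calls: active = maximal inhibition of the USP30 enzyme reaching 30% or more across the dose series; inactive = the rest.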

Chain of Ubiquitin carboxyl-terminal hydrolase 30 (Homo sapiens) (Q70CQ3 whole entry, looked up): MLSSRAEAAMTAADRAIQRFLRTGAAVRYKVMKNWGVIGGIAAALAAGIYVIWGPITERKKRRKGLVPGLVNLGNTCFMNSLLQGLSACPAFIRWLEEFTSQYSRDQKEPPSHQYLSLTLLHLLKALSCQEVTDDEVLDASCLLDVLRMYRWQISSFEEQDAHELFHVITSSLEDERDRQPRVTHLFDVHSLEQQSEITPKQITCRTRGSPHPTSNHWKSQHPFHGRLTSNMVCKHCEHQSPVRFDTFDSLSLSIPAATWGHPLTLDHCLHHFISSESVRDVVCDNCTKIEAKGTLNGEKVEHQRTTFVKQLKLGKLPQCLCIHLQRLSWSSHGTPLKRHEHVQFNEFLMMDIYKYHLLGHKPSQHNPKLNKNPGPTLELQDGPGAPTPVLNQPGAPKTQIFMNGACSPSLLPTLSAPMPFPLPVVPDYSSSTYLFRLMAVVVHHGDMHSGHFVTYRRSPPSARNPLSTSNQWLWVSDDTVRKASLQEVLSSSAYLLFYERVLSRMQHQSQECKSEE

With `COc1ccc(CCNC(=O)c2cn(-c3ccc(F)cc3)nn2)cc1OC`, the IC50 was 6.79 µM. As for `CC(C)(C)c1ccc(C(=O)Nc2ccc(Oc3cccnc3)nc2)cc1`, the IC50 is > 50 µM (inactive). The same measure for `COc1ccc(C(=O)NCCc2nnc3ccc(SCC(=O)NCc4ccc(F)cc4)nn23)cc1`: 15.8 µM; for `COc1ccc(C(C)NC(=O)c2cnc(-c3ccccc3)nc2-c2ccncc2)cc1` (stereo not given): > 50 µM (inactive); for `CCOc1ccc(-c2cc3nc(C4CCN(C(=O)OC(C)(C)C)CC4)c(C(=O)Nc4cc(F)ccc4F)cn3n2)cc1`: > 50 µM (inactive). The same measure for `Cc1ccc2c(=O)c3c([nH]c2c1C)CCN(CC(=O)NCc1ccc2c(c1)OCO2)C3`: > 50 µM (inactive). The result for `CCCCN(C)C(=O)c1cc2c(=O)n3cccc(C)c3nc2n1Cc1ccccc1` reads 36.8 µM; that for `Cc1cc(C)nc(-n2nc(C)c3c2NC(=O)CSC3c2ccc(F)cc2F)n1` (stereo not given), 31.3 µM; that for `CN1C(=O)c2cc(NC(=O)c3ccccc3Cl)ccc2Oc2ccccc21`, > 50 µM (inactive).

As to `COc1ccc(NC(=O)c2cc(-c3cccnc3)n[nH]2)cc1Cl`, the IC50 is 1.16 µM. The result for `O=C(Nc1ccncc1)c1ncoc1-c1cccc(Cl)c1` reads 35.5 µM.

Take `CCOc1cc(N2CCOCC2)c(OCC)cc1NC(=O)c1cc(-c2ccncc2)nc2ccccc12`: the IC50 was 3.68 µM.

As to `Cn1cc(-c2cnc(-c3cccc(F)c3)nc2)cc1C(=O)NCc1cccnc1`, the IC50 is 30.7 µM. The same measure for `Cc1ccc(Nc2nc(Nc3cccc(F)c3)nc3nccnc23)c(C)c1`: > 50 µM (inactive).

For the compound `CCn1c(=O)c2ccccc2n(Cc2nc(-c3ccccc3OC)no2)c1=O`, the IC50 was > 50 µM (inactive).

For `CCOc1ccccc1C(=O)NCC(=O)OC(C(=O)c1c[nH]c2ccccc12)c1ccccc1` (stereo not given), the IC50 is > 50 µM (inactive). The result for `COc1ccccc1CNC(=O)C1CCCN(c2nc3ccsc3c(=O)s2)C1` (stereo not given) reads 3.45 µM; that for `COc1cc(C(=O)Nc2ccc(-c3csc(C)n3)cc2)cc(OC)c1OC`, > 50 µM (inactive); that for `O=C(Nc1cc(F)c2nc(N3CCCC3)ccc2c1)c1ccco1`, > 50 µM (inactive). The result for `Clc1ccccc1CSc1nnc(C2CCCCC2)n1Cc1ccccc1` reads 21.5 µM; that for `CC(CCc1ccccc1)NC(=O)C(=O)c1cn(CC(=O)N2CCOCC2)c2ccccc12` (stereo not given), > 50 µM (inactive); that for `O=C(Nc1ccccc1Cl)N(Cc1cc2cc3c(cc2[nH]c1=O)OCCO3)C1CCCCC1`, 35.5 µM. The same measure for `CCc1cc(C(=O)c2ccc(OC)cc2)c(NC(=O)CN2CCCCC2)s1`: 33.5 µM; for `CS(=O)(=O)N1CCCc2cc(C(=O)Nc3ccc4c(c3)OCO4)ccc21`: > 50 µM (inactive). Consider `Cc1cn[nH]c1C1COCCN1C(=O)c1ccc2ncccc2c1` (stereo not given), for which the IC50 was > 50 µM (inactive). The result for `CN(C)S(=O)(=O)c1ccc(C(=O)Nc2c(C#N)oc3ccccc23)cc1` reads > 50 µM (inactive). The same measure for `CC(C(=O)NCc1ccc2c(c1)OCO2)N1CCN(c2ccc(O)cc2)CC1` (stereo not given): > 50 µM (inactive).

With `CC1(C)CC(n2[nH]c(=O)c3c2NC(=O)CSC3c2ccc(OCc3ccccc3)cc2)CCO1` (stereo not given), the IC50 is 12 µM.

Turning to `Cn1ccc2c(cc(C(=O)NCCC3=CCCCC3)n2C)c1=O`, the IC50 was > 50 µM (inactive). The same measure for `COCCN(C1CCN(CCc2ccc(Cl)cc2)CC1)S(=O)(=O)c1cccc2cccnc12`: > 50 µM (inactive); for `Cc1cccc(NC(=O)Cn2c(N3CCOCC3)nc3cc(C)n(C)c3c2=O)c1`: 20.9 µM; for `COc1ccc(/C=C/C(=O)N2CCc3ccccc32)cc1S(=O)(=O)N1CCOCC1`: > 50 µM (inactive). The result for `COC(=O)c1cc(C#N)c(NCc2ccccc2)nc1C` reads 10.1 µM; that for `COc1ccc(N(CC(=O)Nc2cccc(F)c2)S(=O)(=O)c2ccc(OC)c(OC)c2)cc1`, 17.6 µM. The result for `O=C(Nc1ccc(F)cc1F)NC1Cc2ccccc2C1` reads 29 µM.

The IC50 is the concentration at which inhibition is half-maximal.

The values above are taken from PubChem BioAssay AID1645865 (Buhrlage Lab, Dana-Farber Cancer Institute and Novartis …, 2021).
